According to US5843889A, “Glycopeptide antibiotic derivatives” (Eli Lilly and Company, priority 1997, dated 1998):
≈ marks a conversion by molar mass, not a printed value.

Key:
Format in all cases: cell-based
[1] = test system: Staphylococcus aureus SA1199B
Experimental: (§1) The MIC's were determined using a standard broth micro-dilution assay.

[2] = test system: Staphylococcus aureus S13E
Experimental: as §1

Entercoccus faecalis 276 = assay: MIC, standard broth micro-dilution assay
Experimental: (§2) The formula I compounds have in vitro and in vivo activity against Gram-positive pathogenic bacteria. The MIC's were determined using a standard broth micro-dilution assay.

[3] = test system: Entercoccus faecalis 2041; assay: MIC, standard broth micro-dilution assay
Experimental: as §2

[4] = test system: Entercoccus gallinarum 245; assay: MIC, standard broth micro-dilution assay
Experimental: as §2

Entercoccus faecium 180 = assay: MIC, standard broth micro-dilution assay
Experimental: as §1

[5] = test system: Streptococcus pneumoniae P1; assay: MIC, standard broth micro-dilution assay
Experimental: as §1

[6] = test system: Staphylococcus aureus SA1199; assay: MIC, standard broth micro-dilution assay
Experimental: as §1

[7] = test system: Staphylococcus haemolyticus 415; assay: MIC, standard broth micro-dilution assay
Experimental: as §1

[8] = test system: Staphylococcus epidermidis 270; assay: MIC, standard broth micro-dilution assay
Experimental: as §1

[9] = test system: Staphylococcus aureus 489; assay: MIC, standard broth micro-dilution assay
Experimental: as §1

[10] = test system: Staphylococcus haemolyticus 105; assay: MIC, standard broth micro-dilution assay
Experimental: as §1

[11] = test system: Staphylococcus aureus X778; assay: MIC, standard broth micro-dilution assay
Experimental: as §1

[12] = test system: Staphylococcus aureus 447; assay: MIC, standard broth micro-dilution assay
Experimental: as §1

[13] = test system: Staphylococcus aureus X400; assay: MIC, standard broth micro-dilution assay
Experimental: as §1

[14] = test system: Staphylococcus aureus 491; assay: MIC, standard broth micro-dilution assay
Experimental: as §1

[15] = test system: Haemophilus influenzae RD; assay: MIC, standard broth micro-dilution assay
Experimental: as §1

[16] = test system: Entercoccus faecium 180-1; assay: MIC, standard broth micro-dilution assay
Experimental: as §1

[17] = test system: Staphylococcus aureus SA1199A; assay: MIC, standard broth micro-dilution assay
Experimental: as §1

[18] = test system: Staphylococcus aureus 446; assay: MIC, standard broth micro-dilution assay
Experimental: as §1

Escherichia coli EC14 = assay: MIC, standard broth micro-dilution assay
Experimental: as §1

Leuconostoc lactis = assay: MIC, agar dilution on brain-heart infusion agar; conditions: Leuconostoc lactis (mean of 2)
Pedicoccus acidilacti = assay: MIC, agar dilution on brain-heart infusion agar; conditions: Pedioccccus acidilacti (mean of 10)
Lactobacillus confusus = assay: MIC, agar dilution on brain-heart infusion agar
[19] = test system: Leuconostoc mesenteroides; assay: MIC, agar dilution on brain-heart infusion agar; conditions: Leuconostoc mesenteroides (mean of 4)
Pediococcus pentosaceus = assay: MIC, agar dilution on brain-heart infusion agar; conditions: Pediococcus pentosaceus (mean of 2)

| Compound | MIC [1] | MIC [2] | MIC (Entercoccus faecalis 276) | MIC [3] | MIC [4] | MIC (Entercoccus faecium 180) | MIC [5] | MIC [6] | MIC [7] | MIC [8] | MIC [9] | MIC [10] | MIC [11] | MIC [12] | MIC [13] | MIC [15] | MIC [16] | MIC [17] | MIC [18] | MIC (Escherichia coli EC14) | further results |
| --- | --- | --- | --- | --- | --- | --- | --- | --- | --- | --- | --- | --- | --- | --- | --- | --- | --- | --- | --- | --- | --- |
| CNC(CC(C)C)C(=O)NC1C(=O)NC(CC(N)=O)C(=O)NC2C(=O)NC3C(=O)NC(C(=O)NC(C(=O)O)c4cc(O)cc(O)c4-c4cc3ccc4O)C(OC3CC(C)(N)C(O)C(C)O3)c3ccc(c(Cl)c3)Oc3cc2cc(c3OC2OC(CO)C(O)C(O)C2OC2CC(C)(NCC3CC=CCC3)C(O)C(C)O2)Oc2ccc(cc2Cl)C1O (stereo not drawn) [Compound 47, 3,4 cyclohexenylmethyl] | 0.25 µg/mL (≈ 0.148 µM) | ≤ 0.06 µg/mL | ≤ 0.06 µg/mL | ≤ 0.06 µg/mL | 16 µg/mL (≈ 9.49 µM) | 2 µg/mL (≈ 1.19 µM) | ≤ 0.06 µg/mL | 0.5 µg/mL (≈ 0.296 µM) | 16 µg/mL (≈ 9.49 µM) | 1 µg/mL (≈ 0.593 µM) | ≤ 0.06 µg/mL | 4 µg/mL (≈ 2.37 µM) | ≤ 0.06 µg/mL | 2 µg/mL (≈ 1.19 µM) | ≤ 0.06 µg/mL | > 64 µg/mL | ≤ 0.06 µg/mL | 0.25 µg/mL (≈ 0.148 µM) | 0.125 µg/mL (≈ 0.0741 µM) | > 64 µg/mL | MIC [14]: 0.5 µg/mL (≈ 0.296 µM) |
| CNC(CC(C)C)C(=O)NC1C(=O)NC(CC(N)=O)C(=O)NC2C(=O)NC3C(=O)NC(C(=O)NC(C(=O)O)c4cc(O)cc(O)c4-c4cc3ccc4O)C(OC3CC(C)(N)C(O)C(C)O3)c3ccc(c(Cl)c3)Oc3cc2cc(c3OC2OC(CO)C(O)C(O)C2OC2CC(C)(NCc3c(O)ccc4ccccc34)C(O)C(C)O2)Oc2ccc(cc2Cl)C1O (stereo not drawn) [Compound 44] | 0.25 µg/mL (≈ 0.143 µM) | 0.25 µg/mL (≈ 0.143 µM) | 0.125 µg/mL (≈ 0.0715 µM) | ≤ 0.06 µg/mL | 0.5 µg/mL (≈ 0.286 µM) | 8 µg/mL (≈ 4.57 µM) | – | 0.25 µg/mL (≈ 0.143 µM) | 4 µg/mL (≈ 2.29 µM) | 0.5 µg/mL (≈ 0.286 µM) | ≤ 0.06 µg/mL | 2 µg/mL (≈ 1.14 µM) | ≤ 0.06 µg/mL | 1 µg/mL (≈ 0.572 µM) | ≤ 0.06 µg/mL | > 64 µg/mL | ≤ 0.06 µg/mL | ≤ 0.06 µg/mL | 0.25 µg/mL (≈ 0.143 µM) | > 64 µg/mL | – |
| CNC(CC(C)C)C(=O)NC1C(=O)NC(CC(N)=O)C(=O)NC2C(=O)NC3C(=O)NC(C(=O)NC(C(=O)O)c4cc(O)cc(O)c4-c4cc3ccc4O)C(OC3CC(C)(N)C(O)C(C)O3)c3ccc(c(Cl)c3)Oc3cc2cc(c3OC2OC(CO)C(O)C(O)C2OC2CC(C)(NCc3ccc(Cc4ccccc4)cc3)C(O)C(C)O2)Oc2ccc(cc2Cl)C1O (stereo not drawn) [Compound 50, 4-benzylbenzyl] | 2 µg/mL (≈ 1.13 µM) | – | 0.25 µg/mL (≈ 0.141 µM) | ≤ 0.06 µg/mL | 1 µg/mL (≈ 0.564 µM) | 0.25 µg/mL (≈ 0.141 µM) | ≤ 0.06 µg/mL | 1 µg/mL (≈ 0.564 µM) | 1 µg/mL (≈ 0.564 µM) | 0.5 µg/mL (≈ 0.282 µM) | ≤ 0.06 µg/mL | 0.5 µg/mL (≈ 0.282 µM) | – | 0.5 µg/mL (≈ 0.282 µM) | – | > 64 µg/mL | ≤ 0.06 µg/mL | ≤ 0.06 µg/mL | 0.5 µg/mL (≈ 0.282 µM) | > 64 µg/mL | MIC (Leuconostoc lactis): 64 µg/mL (≈ 36.1 µM); MIC (Pedicoccus acidilacti): 51 µg/mL (≈ 28.8 µM); MIC (Lactobacillus confusus): 64 µg/mL (≈ 36.1 µM); MIC [14]: 0.5 µg/mL (≈ 0.282 µM); MIC [19]: 64 µg/mL (≈ 36.1 µM); MIC (Pediococcus pentosaceus): 64 µg/mL (≈ 36.1 µM) |
